Counter-ions that a name gives are not always drawn.

The record followed here is patent publication US8344160B2, “Pyrrolone melanin concentrating hormone receptor-1 antagonists” (Bristol-Myers Squibb Company, priority 2008, dated 2013).

Assay [1] addresses T1, mutated (E4Q, A5T) hMCHR1 receptor (Homo sapiens, UniProt Q99705, A5T/E4Q).
T1 construct: expressed in transfected cells; host or cells: HEK-293 (stably transfected), membrane preparation
Kind of assay: Radioligand binding assay for assessment of MCHR1 activity. The conditions noted are these: membranes from stably transfected HEK-293 cells; competition with [Phe13,[125I]Tyr19]-MCH. The method, then:
Radioligand Binding Assay for Assessment of MCHR1 Activity
Membranes from stably transfected HEK-293 cells expressing a mutated (E4Q, A5T) hMCHR1 receptor were prepared by dounce homogenization and differential centrifugation. Binding experiments were carried out with 0.5-1.0 ug of membrane protein incubated in a total of 0.2 ml in 25 mM HEPES (pH 7.4) with 10 mM MgCl2, 2 mM EGTA, and 0.1% BSA (Binding Buffer) for 90 min. For competition binding assays, reactions were carried out in the presence of with 0.06-0.1 nM [Phe^13, [^125I]Tyr^19]-MCH and increasing concentrations of unlabeled test molecules. Reactions were terminated by rapid vacuum filtration over 96 well-GFC UNIFILTER® plates pre-coated with 0.075 ml binding buffer containing 1% BSA, and washed 3 times with 0.4 ml of Phospho-buffered Saline (pH 7.4) containing 0.01% TX-100. Filters were dried, 0.05 ml microscint 20 was added to each well and radioactivity was subsequently quantified by scintillation counting on a TOPCOUNT® microplate scintillation counter (Packard). Inhibitory constants were determined by nonlinear least squares analysis using a four parameter logistic equation.

Assay [2] can be described thus: Assessment of in vivo MCHR activity: body weight of rats with a choice of chow and high fat/high sugar diet. Further details: species or system rat. As to conditions: male Sprague Dawley rats, 30 mg/kg p.o. daily day 0 through day 4, dosed as prodrug (Examples 57, 68, 66). The method, then:
Male SPRAGUE DAWLEY® (CD, Charles River Breeding Laboratory) rats weighing approximately 240 grams were place in individual plastic cages with ALPHADRI® bedding. The room was maintained at 72° F. and 50% humidity, and a 12/12 light dark cycle with lights out at 1600 hours. The rats were conditioned for 5 days prior to the start of the study to having a choice of foods. A normal chow (HARLAN TEKLAD®, 2018) that contains 18% protein, 5% fat and 73% carbohydrate and a high fat high sugar diet (Research Diets (D2327)) that contains 20% protein, 40% fat and 40% carbohydrate where the carbohydrate is entirely sucrose and the fat is soybean and coconut oil. […] Body weight and consumption of both kinds of food as well as water intake were measured daily. Water was available ad lib throughout the study. Food consumption is presented as daily caloric consumption which is the sum of grams of chow multiplied by the Kcal per gram (3.5) plus grams of high fat high sugar multiplied by Kcal per gram (4.59).
Baseline body weight was measured prior to drug treatment on day 0 of the study. Baseline food consumption was the average of the 3 days prior to the first drug treatment. Drug was administered daily p.o. at 2.0 ml/kg at 1500 hours beginning on day 0 and continuing daily through day 4 as a suspension in 0.5% methyl cellulose, 0.1% Tween 80 in water at 3.0, 10 and 30 mg/kg p.o. All data were evaluated using ANOVA and Fishers PLSD statistics.

T1 sequence (Q99705 whole entry E4Q/A5T): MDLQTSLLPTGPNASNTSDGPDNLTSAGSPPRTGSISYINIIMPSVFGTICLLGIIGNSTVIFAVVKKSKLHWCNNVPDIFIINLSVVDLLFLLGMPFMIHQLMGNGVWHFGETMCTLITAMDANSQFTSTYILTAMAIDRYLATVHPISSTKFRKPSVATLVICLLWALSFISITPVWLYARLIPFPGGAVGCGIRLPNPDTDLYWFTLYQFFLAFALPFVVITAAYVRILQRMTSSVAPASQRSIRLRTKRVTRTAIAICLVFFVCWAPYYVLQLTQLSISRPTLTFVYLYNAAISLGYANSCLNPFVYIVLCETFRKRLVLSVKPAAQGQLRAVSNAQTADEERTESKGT

“5-(4-(2-Hydroxy-2-methylpropoxy)-3-methoxyphenyl)-2-(6-methoxypyridin-3-yl)-4H-thieno[3,2-c]pyrrol-6(5H)-one, trifluoroacetic acid salt [Example 41]”: the Ki – broadly, a dissociation constant, usually derived from enzyme kinetics or from competition with a known ligand – in assay [1] worked out at 800 nM.

`COc1cc(N2Cc3cc(-c4ccc(Cl)cc4)sc3C2=O)ccc1OCC(C)(C)O` [Example 1, 2-(4-Chlorophenyl)-5-(4-(2-hydroxy-2-methylpropoxy)-3-methoxyphenyl)-4H-thieno[3,2-c]pyrrol-6(5H)-one]: the “Weight Reduction versus Vehicle” value in assay [2] is recorded as 3.9%. The same compound returned an inhibition constant (Ki) in assay [1] of 1.9 nM.

Consider `COc1cc(N2Cc3cc(-c4ccc(Cl)cc4)sc3C2=O)ccc1OC[C@H](O)C1CC1` [Example 2], for which the inhibition constant (Ki) in assay [1] worked out at 2.5 nM. `COc1cc(N2Cc3cc(-c4ccc(Cl)cc4)sc3C2=O)ccc1OCCN1CCCC1` [Example 3]: the affinity in assay [1] corresponds to a Ki of 0.2 nM. In turn, `COc1cc(N2Cc3cc(-c4ccc(Cl)cc4)sc3C2=O)ccc1O` [Example 6] had an inhibition constant (Ki) in assay [1] of 30 nM.

In assay [1], `CN[C@H]1CCN(c2ccc(N3Cc4cc(-c5ccc(Cl)cc5)sc4C3=O)cn2)C1` [Example 10] came in with a Ki of 0.3 nM.

Consider `COc1cc(N2Cc3cc(-c4ccc(Cl)cc4)sc3C2=O)ccc1OC[C@H](O)CS(C)(=O)=O` [Example 15], for which the affinity in assay [1], expressed as Ki, was 0.6 nM. Consider `CN(C)[C@@H]1CCN(c2ccc(N3Cc4cc(-c5ccc(Cl)cc5)sc4C3=O)cn2)C1` [Example 21, (R)-2-(4-Chlorophenyl)-5-(6-(3-(dimethylamino)pyrrolidin-1-yl)pyridin-3-yl)-4H-thieno[3,2-c]pyrrol-6(5H)-one], for which the Ki in assay [1] was determined as 0.2 nM. The same measure, in the same setting: the same measure for `COc1cc(N2Cc3cc(-c4ccc(Cl)cn4)sc3C2=O)ccc1OCC(O)C(F)(F)F` (stereo not drawn) [Example 27]: 2.5 nM. Consider `COc1cc(N2Cc3cc(-c4ccc(Cl)cn4)sc3C2=O)ccc1OC[C@H](O)CS(C)(=O)=O` [Example 31], for which the “Weight Reduction versus Vehicle” value in assay [2] came out at 3.2%. For the compound `COc1cc(N2Cc3cc(-c4ncc(Cl)cn4)sc3C2=O)ccc1OCC(C)(C)O` [Example 33], in assay [2], the “Weight Reduction versus Vehicle” value came to 4.8%. For the same compound, the Ki in assay [1] was 17 nM. Turning to `COc1cc(N2Cc3cc(-c4ncc(Cl)cn4)sc3C2=O)ccc1N1CCC(O)CC1` [Example 39], affinity in assay [1] was put at a Ki of 33.6 nM. `COc1cc(N2Cc3cc(-c4ccncc4)sc3C2=O)ccc1OCC(C)(C)O` [Example 43] had an inhibitory constant (Ki) in assay [1] of 1290 nM. Still for that read-out and setting: the same measure for `COc1cc(N2Cc3cc(-c4ccc(Cl)nc4)sc3C2=O)ccc1OCC(C)(C)O` [Example 44]: 21.6 nM; for `COc1cc(N2Cc3cc(-c4ccccn4)sc3C2=O)ccc1OCC(C)(C)O` [Example 49, 5-(4-(2-Hydroxy-2-methylpropoxy)-3-methoxyphenyl)-2-(pyridin-2-yl)-4H-thieno[2,3-c]pyrrol-6(5H)-one, trifluoroacetic acid salt]: 107 nM; for `COc1cc(N2Cc3nc(-c4ccc(Cl)cc4)sc3C2=O)ccc1OCC(C)(C)O` [Example 52, 2-(4-Chlorophenyl)-5-(4-(2-hydroxy-2-methylpropoxy)-3-methoxyphenyl)-4H-pyrrolo[3,4-d]thiazol-6(5H)-one]: 68 nM. On the same count and under the same terms, the same measure for `COc1cc(N2Cc3nc(-c4ccc(Cl)cc4)oc3C2=O)ccc1OCC(C)(C)O` [Example 53, 2-(4-Chlorophenyl)-5-(4-(2-hydroxy-2-methylpropoxy)-3-methoxyphenyl)-4H-pyrrolo[3,4-d]oxazol-6(5H)-one]: 248 nM; for `COc1cc(N2Cc3cc(-c4ccc(Cl)cc4)oc3C2=O)ccc1OCC(C)(C)O` [Example 54, 2-(4-Chlorophenyl)-5-(4-(2-hydroxy-2-methylpropoxy)-3-methoxyphenyl)-4H-furo[3,2-c]pyrrol-6(5H)-one]: 13.3 nM; for `COc1cc(N2Cc3cc(-c4ncc(Cl)cn4)sc3C2=O)ccc1OCC(C)(C)OC(=O)CN` [Example 68]: 17.6 nM.
